Patent US5175162A, “Thiophene compounds and their pharmaceutical uses” (Yoshitiomi Pharmaceutical Industries Ltd., priority 1989, dated 1992)

Tests used:
[1] = Antianxiety effect (Vogel type conflict test); assay type: in vivo, Wistar rats; details: Rattus norvegicus, po; orally 1 hr before test; P<0.05 vs 0.5% MC control; read-out: Antianxiety effect MED (minimum effective dose)
Text: The experimental procedure used modified the method of Vogel et al (1971). Wistar rats were used. They were deprived of water for 72 hr before the test. The rats were placed in a plexiglas conflict test box (light compartment: 38×38×20 cm, dark compartment: 10×10×20 cm). A water bottle with a stainless steel spout was fitted to the middle of the outside, so that the spout extended 3 cm into the box at a height of 10 cm above the grid floor. A drinkometer circuit (Ohara Inc., Nihon Koden) was connected with the spout and the number of licks were counted. The rat was placed into the apparatus where an electric shock (0.2-0.3 mA, 0.3 sec) was given once every 20th lick. After the rat received the first electric shock, the number of shocks were recorded during the subsequent 3 min test period. The test compounds were administered orally 1 hr before the test. The minimum effective dose (MED) was defined as the lowest dose producing a statistically significant difference between 0.5% MC-treated (control) and test drug treated punished responses (One-way ANOVA test; P<0.05).

benzodiazepine receptors [2] = assay: 3H-diazepam (3H-DZP) binding assay, displacement at benzodiazepine receptors; set-up: species or system Wistar rats (cerebral cortex); details: tritiated diazepam 2 nM, 0° C., 20 min; read-out: Affinity for BZP receptors Ki
Method: ^3 H-DZP binding assay was carried out according to the previously described method in Life Science, vol. 20, 2101 (1977).
The crude cynaptosomal fraction prepared from the cerebral cortex of Wistar rats aged 9-10 weeks was suspended in 50 mM Tris-hydrochloric acid buffer (pH 7.4) containing 120 mM sodium chloride and 5 mM potassium chloride. These suspensions were used for the following experiment.
The reaction was started by the addition of synaptosomal suspension to the solution containing tritiated diazepam (final concentration is 2 nM) and a known concentration of test compounds at 0° C. for 20 min. The binding was stopped by the filtration under vacuum through Whatman GF/B filters and the filters were immediately washed with the above-mentioned buffer. The radioactivity on the filters was measured by a liquid scintillation counter.
The binding affinities of the compound of the present invention for benzodiazepine receptors are evaluated from its displacement ability for tritiated diazepam at its binding site, which is represented as Ki value (nM).

Anti-bicuculline action = assay type: in vivo, male ddY mice; details: Mus musculus; (+) bicuculline 0.6 mg/kg i.v. 1 hour after oral administration; prevention of tonic extention; read-out: Antibicuculline effect ED50
Method: The anti-bicuculline action of the test compounds was done according to the method reported in Life Science, vol. 21, 1779 (1977).
The test was carried out using groups of 7-14 male ddY mice weighing 20-25 g. The animals were challenged with (+) bicuculline (0.6 mg/kg i.v.) 1 hour after the oral administration of the test compounds. The ED50 values were calculated by the probit method as the dose which prevent the tonic extention in half of the animals.

[3] = Effects on seizure induced by maximal electroshock (anti-MES action); assay type: in vivo, male ddY mice; details: 1 hour before MES
Method: The test was carried out using groups of five male ddY mice. The animals were challenged with a maximal electroshock (MES, AC 2000 V, 12.5 mA, 0.2 sec) delivered through bilatesal corneal electrodes 1 hour after the oral or intraperitoneal administration of the test compounds. Antagonism of MES-induced seizure was defined as the absence of the tonic extention.

benzodiazepine receptors [4] = details: U.S. Pat. No. 4,849,421; cited from earlier work

CCc1cc2c(s1)S(=O)(=O)CCc1cc(=O)n(-c3ccc(Cl)cc3)nc1-2 [Example 28, 2-(4-Chlorophenyl)-9-ethyl-5,6-dihydrothieno[2',3':2,3]thiepino[4,5-c]pyridazin-3(2H)-one 7,7-dioxide]
minimal effective dose [1]: 2.5 mg/kg | Ki (benzodiazepine receptors [2]): 0.63 nM | ED50 (Anti-bicuculline action): 0.23 mg/kg

CCCc1cc2c(s1)S(=O)(=O)CCc1cc(=O)n(-c3ccc(Cl)cc3)nc1-2 [Example 71, 2-(4-Chlorophenyl)-9-propyl-5,6-dihydrothieno[2',3':2,3]thiepino[4,5-c]pyridazin-3(2H)-one 7,7-dioxide]
Inhibitory rate (anti-MES) ([3]; 30 mg/kg i.p.): 100%

CCc1cc2c(s1)SCCc1cc(=O)n(-c3ccc(OC)cc3)nc1-2 [Example 58, 9-ethyl-2-(4-methoxyphenyl)-5,6-dihydrothieno[2',3':2,3]thiepino[4,5-c]pyridazin-3(2H)-one]
Ki (benzodiazepine receptors [2]): 0.56 nM | ED50 (Anti-bicuculline action): 0.4 mg/kg

O=c1cc2c(nn1-c1ccc(Cl)cc1)-c1cc(Br)sc1[S+]([O-])CC2 (centres unmarked) [Example 26, 9-bromo-2-(4-chlorophenyl)-5,6-dihydrothieno[2',3':2,3]thiepino[4,5-c]pyridazin-3(2H)-one 7-oxide]
Ki (benzodiazepine receptors [2]): 1.4 nM | ED50 (Anti-bicuculline action): 0.56 mg/kg

CCCc1cc2c(s1)[S+]([O-])CCc1cc(=O)n(-c3ccc(Cl)cc3)nc1-2 (centres unmarked) [Example 70, 2-(4-Chlorophenyl)-9-propyl-5,6-dihydrothienol[2',3':2,3]thiepino[4,5-c]pyridazin-3(2H)-one 7-oxide]
Ki (benzodiazepine receptors [2]): 0.62 nM | ED50 (Anti-bicuculline action): 0.62 mg/kg

CCCc1cc2c(s1)SCCc1cc(=O)n(-c3ccc(Cl)cc3)nc1-2 [Example 69, 2-(4-Chlorophenyl)-9-propyl-5,6-dihydrothieno[2',3':2,3]thiepino[4,5-c]pyridazin-3(2H)-one]
Inhibitory rate (anti-MES) ([3]; 30 mg/kg i.p.): 80%

CCc1cc2c(s1)[S+]([O-])CCc1cc(=O)n(-c3ccc(Cl)cc3)nc1-2 (centres unmarked) [Example 25, 2-(4-chlorophenyl)-9-ethyl-5,6-dihydrothieno[2',3':2,3]thiepino[4,5-c]pyridazin-3(2H)-one 7-oxide]
Inhibitory rate (anti-MES) ([3]; 30 mg/kg i.p.): 80% | Ki (benzodiazepine receptors [2]): 1.4 nM | ED50 (Anti-bicuculline action): 0.66 mg/kg

O=c1cc2c(nn1-c1ccc(Cl)cc1)-c1ccccc1SCC2 [2-(4-chlorophenyl)-5,6-dihydro[1]benzothiepino[5,4-c]pyridazin-3(2H)-one]
activity against BZP receptors (benzodiazepine receptors [4]): partial agonistic activity

CC(O)c1cc2c(s1)S(=O)(=O)CCc1cc(=O)n(-c3ccc(Cl)cc3)nc1-2 (centres unmarked) [Example 50, 2-(4-chlorophenyl)-9-(1-hydroxyethyl)-5,6-dihydrothieno[2',3':2,3]thiepino[4,5-c]pyridazin-3(2H)-one 7,7-dioxide]
Ki (benzodiazepine receptors [2]): 0.97 nM | ED50 (Anti-bicuculline action): 0.87 mg/kg

CCc1cc2c(s1)S(=O)(=O)CCc1cc(=O)n(-c3ccc(OC)cc3)nc1-2 [Example 64, 9-Ethyl-2-(4-methoxyphenyl)-5,6-dihydrothieno[2',3':2,3]thiepino[4,5-c]pyridazin-3(2H)-one 7,7-dioxide]
Ki (benzodiazepine receptors [2]): 0.44 nM | ED50 (Anti-bicuculline action): 1.4 mg/kg

CCc1cc2c(s1)SCCc1cc(=O)n(-c3ccc(Cl)cc3)nc1-2 [Example 22, 2-(4-chlorophenyl)-9-ethyl-5,6-dihydrothieno[2',3':2,3]thiepino[4,5-c]pyridazin-3(2H)-one]
Ki (benzodiazepine receptors [2]): 1.8 nM | ED50 (Anti-bicuculline action): 0.49 mg/kg

O=C1CC2CCSc3sccc3C2=NN1c1ccc(Cl)cc1 (centres unmarked) [Example 14]
Inhibitory rate (anti-MES) ([3]; 30 mg/kg i.p.): 100% | Inhibitory rate (anti-MES) ([3]; 30 mg/kg p.o.): 40% | Inhibitory rate (anti-MES) ([3]; 100 mg/kg p.o.): 100%

O=c1cc2c(nn1-c1ccc(Cl)cc1)-c1cc(Br)sc1S(=O)(=O)CC2 [Example 65, 9-Bromo-2-(4-chlorophenyl)-5,6-dihydrothieno[2',3':2,3]thiepino[4,5-c]pyridazin-3(2H)-one 7,7-dioxide]
Ki (benzodiazepine receptors [2]): 0.12 nM | ED50 (Anti-bicuculline action): 1.4 mg/kg
